“Also recorded” adds a separate entry of the source.

Here are results for one compound from patent US20260373103A1, “COMPOSITIONS AND METHODS FOR PREVENTING CARDIOMYOPATHY” (OHIO STATE INNOVATION FOUNDATION, priority 2022, published 2026).

In data set [1] the test system is liver tissue of mt-Keima mice. The data set can be described thus: In vivo mitophagy in liver, mt-Keima mice. The settings on record: 25 mg/kg/day i.p. for 5 days. Set-up: species or system mouse. The procedure:
Fluorescent samples were examined with a Zeiss LSM 780 confocal microscope (Carl Zeiss MicroImaging). As previously described^2, fluorescence of mt-Keima was imaged in two channels via two sequential excitations (458 nm, green; 561 nm, red) and using a 570- to 695-nm emission range. Confocal experiments for parkin translocation were performed using a HeLa cell line stably expressing YFP-Parkin plated on 35 mm coverglass #1.5 chamber dishes (MatTek). These cells were treated for 2 h with DMSO as vehicle control or with A/O. YFP was imaged with a 514-nm excitation and 520- to 570-emission filters. Representative confocal images were processed using Imaris software by contrast linear stretch only. Calculation of mitophagy based on mt-Keima signal was performed using Zeiss ZEN software as previously described^2. The average of four images from each tissue sample was taken, and the values were normalized to the average value seen in the controls, assigned the value of one.
The mt-Keima mouse. […] The mice were lightly anesthetized with isoflurane and the ejection fraction, fractional shortening, and ventricular chamber dimensions were determined using 2-D-guided M mode images. Ejection fraction, fractional shortening, ventricular chamber dimensions, and left ventricular mass were calculated automatically using the VevoLAB program. […]

In data set [2] the test system is HeLa-Parkin or HeLa-Parkin/USP30 cells. As to the kind of experiment: Mitochondrial membrane potential (TMRM signal). The format is cell-based. Conditions: ST-539 3 to 10 μg/ml.
Method: ΔΨm was measured using a fluorescence microplate reader (BioTek Instruments) in cells preincubated with Tetramethylrhodamine methyl ester (TMRM, Thermo Scientific) following manufacturer's instructions. Cells were washed in PBS before resuspension in Hank's balanced salt solution (HBSS; 156 mM NaCl, 3 mM KCl, 2 mM MgSO4, 1.25 mM KH2PO4, 2 mM CaCl2), 10 mM glucose and 10 mM HEPES; pH adjusted to 7.35 with NaOH) (1.0×10^6 cells/ml) containing 50 nM TMRM. For each individual experiment, average TMRM fluorescence was normalized to control cells.
We initially analyzed mitochondrial function using Tetramethylrhodamine (TMRM), a dye requiring mitochondrial membrane potential to accumulate within the mitochondria.
Data set [3] is described as follows: Plasma pharmacokinetics after i.p. injection. The format is in vivo. Conditions: mice, 25 mg/kg i.p. The method, then: ST-539 was dissolved into 1% DMSO in Sesame oil and injected intraperitoneally (i.p.) at doses of 25 mg/kg. Serial blood samples were collected at 0.083, 0.25, 0.5, 1, 2, 4 and 8 hours post dosing. Mice were euthanized at 24 hours post dosing. A terminal blood sample was collected by cardiac puncture followed by harvesting the brain and heart. Transcardial perfusion was performed prior to brain collection. The blood samples were placed in microtubes pretreated with K2EDTA as an anticoagulant and kept on ice until centrifugation. The tissue samples were rinsed using cold distilled water to remove blood, blotted dry, weighed and stored on dry ice until LC/MS/MS analysis. Plasma was transferred into polypropylene tubes or 96-well plates, quick frozen on dry ice, and stored at −70±10 °C until LC/MS/MS analysis.

Turning to `CC(C)(C)NS(=O)(=O)c1cccc2c(NC(=O)C(Cc3ccccc3)NC(=O)c3ccccc3)cccc12` (centres unmarked) [ST-539], the hepatic mitophagy result in data set [1] was “remains unchanged; also recorded: inability of ST-539 to induce hepatic mitophagy”. Moreover, in data set [2], the “TMRM staining (mitochondrial membrane potential)” value was “did not block TMRM staining”. Also, in data set [3], the “area under the plasma drug concentration-time curve (AUC)” value is ~ 4.2 μg·h/ml, the “half-life (T1/2)” value is “about 3.85 hr”, the “maximum plasma concentration (Cmax)” value is listed as “about 1.4 μg/ml” and the “time to reach peak plasma concentration (Tmax)” value came to 1.33 h. Further, in data set [3] (plasma), the AUC0-inf stood at 4240 ng·h/mL, the AUC0-last stood at 4162 ng·h/mL, the Cmax (usually the peak of the concentration-time curve) stood at 1427 ng/mL and the MRT0-inf is recorded as 4.27 h. In data set [3] (plasma), the MRT0-last came to 3.86 h, the T1/2 turned out to be 3.85 h, the Tlast is recorded as 24.0 h and the Tmax (commonly the time at which the peak concentration occurs) is given as 1.33 h.
